Among the data in US20250179073A1, “TRICYCLIC HETEROCYCLE COMPOUNDS AS IAP ANTAGONISTS” (Ascentage Pharma (Suzhou) Co., Ltd., priority 2022, published 2025) are IC50 values, retold here.

The assay concerns MDA-MB-231 cells. The assay is described as follows: Cell proliferation assay (CellTiter-Glo), MDA-MB-231. The assay is classed as cell-based. As to conditions: 72 h treatment, Celltiter-Glo luminescence. Here is the method:
Example 238: Cell Proliferation Assay
MDA-MB-231 and EVSA-T cells (10000 cells/well) were plated onto 96-well plates (Corning, Cat #3917) in 95 μL of medium (RPMI-1640 containing 10% FBS and MEM containing 10% FBS, respectively). Compounds with various concentrations ([…]) were added to the wells. After treatment for 72 h, 30 μL of Celltiter-Glo reagent (Promega, Cat #G7573) was added and incubated at room temperature for 15 min, then the luminescent signal was determined using a microplate reader (Biotek, SynergyH1). The inhibitor dose-response curves were analyzed using normalized IC50 regression curve fitting with control based normalization.
In general terms: ATP-based viability assays read luminescence as a measure of living cells.

Structures are written as SMILES. Some results are limits rather than exact numbers.

Take `C[C@@H]1CN(CC(=O)N2CC(C)(C)c3c2cc(Cc2ccc(F)cc2)c2nc(C(=O)O)cn32)[C@@H](CN2CCOC[C@H]2C)CN1` [Compound 117, 4-(4-fluorobenzyl)-8,8-dimethyl-6-(2-((2R,5R)-5-methyl-2-(((R)-3-methylmorpholino)methyl)piperazin-1-yl)acetyl)-7,8-dihydro-6H-imidazo[1,2-a]pyrrolo[2,3-e]pyridine-2-carboxylic acid]: for the setting “Homo sapiens, MDA-MB-231, 72 h”, the IC50 (as a rule, the midpoint of a concentration-inhibition curve) was more than 10000 nM.

On to `C[C@@H]1CN(CC(=O)N2CC(C)(C)c3c2cc(Cc2ccc(F)cc2)c2nn(CC(C)(C)O)c(=O)n32)[C@@H](CN2C3COCC2C3)CN1` [Compound 289, 6-(2-((2R,5R)-2-((3-oxa-6-azabicyclo[3.1.1]heptan-6-yl)methyl)-5-methylpiperazin-1-yl)acetyl)-4-(4-fluorobenzyl)-2-(2-hydroxy-2-methylpropyl)-8,8-dimethyl-2,6,7,8-tetrahydro-1H-pyrrolo[2,3-e][1,2,4]triazolo[4,3-a]pyridin-1-one], for which the IC50 (Homo sapiens, MDA-MB-231, 72 h) worked out at 1700 nM.

For `Cc1nnc2c(Cc3ccc(F)cc3F)cc3c(n12)C(C)(C)CN3C(=O)CN1C[C@@H](C)NC[C@@H]1CN1CCOC[C@H]1C` [Compound 156, 1-(4-(2,4-difluorobenzyl)-1,8,8-trimethyl-7,8-dihydro-6H-pyrrolo[2,3-e][1,2,4]triazolo[4,3-a]pyridin-6-yl)-2-((2R,5R)-5-methyl-2-(((R)-3-methylmorpholino)methyl)piperazin-1-yl)ethan-1-one], the IC50 (Homo sapiens, MDA-MB-231, 72 h) was determined as 1330 nM.

Take `C[C@@H]1CN(CC(=O)N2CC(C)(C)c3c2cc(Cc2ccc(F)cc2)c2c(Cl)cnn32)[C@@H](CN2CCOC[C@H]2C)CN1` [Compound 106, 1-(3-chloro-4-(4-fluorobenzyl)-8,8-dimethyl-7,8-dihydro-6H-pyrazolo[1,5-a]pyrrolo[2,3-e]pyridin-6-yl)-2-((2R,5R)-5-methyl-2-(((R)-3-methylmorpholino)methyl)piperazin-1-yl)ethan-1-one]: the IC50 (Homo sapiens, MDA-MB-231, 72 h) was determined as 390 nM.

`COC(=O)N1CCN(C[C@H]2CN[C@H](C)CN2CC(=O)N2CC(C)(C)c3c2cc(Cc2ccc(F)cc2)c2nn(CC(C)(C)O)c(=O)n32)[C@H](C)C1` [Compound 280, methyl (R)-4-(((2R,5R)-1-(2-(4-(4-fluorobenzyl)-2-(2-hydroxy-2-methylpropyl)-8,8-dimethyl-1-oxo-1,2,7,8-tetrahydro-6H-pyrrolo[2,3-e][1,2,4]triazolo[4,3-a]pyridin-6-yl)-2-oxoethyl)-5-methylpiperazin-2-yl)methyl)-3-methylpiperazine-1-carboxylate]: the IC50 (Homo sapiens, MDA-MB-231, 72 h) worked out at 68 nM.

`C[C@@H]1CN(CC(=O)N2CC(C)(C)c3c2cc(Cc2ccc(F)cc2)c2cnc(C4CCC4)n32)[C@@H](CN2CCOC[C@H]2C)CN1` [Example 6, 1-(1-cyclobutyl-4-(4-fluorobenzyl)-8,8-dimethyl-7,8-dihydro-6H-imidazo[1,5-a]pyrrolo[2,3-e]pyridin-6-yl)-2-((2R,5R)-5-methyl-2-(((R)-3-methylmorpholino)methyl)piperazin-1-yl)ethan-1-one]: the IC50 (Homo sapiens, MDA-MB-231, 72 h) came out at 50 nM.

For the compound `C[C@@H]1CN(CC(=O)N2CC(C)(C)c3c2cc(Cc2ccc(F)cc2)c2nn(Cc4cccnn4)c(=O)n32)[C@@H](CN2CCOC[C@H]2C)CN1` [Compound 253, 4-(4-fluorobenzyl)-8,8-dimethyl-6-(2-((2R,5R)-5-methyl-2-(((R)-3-methylmorpholino)methyl)piperazin-1-yl)acetyl)-2-(pyridazin-3-ylmethyl)-2,6,7,8-tetrahydro-1H-pyrrolo[2,3-e][1,2,4]triazolo[4,3-a]pyridin-1-one], the IC50 (Homo sapiens, MDA-MB-231, 72 h) was found to be 230 nM.

Regarding `C[C@@H]1CN(CC(=O)N2CC(C)(C)c3c2cc(Cc2ccc(F)cc2)c2nc(C(F)(F)F)cn32)C(Cn2ccnc2C(F)(F)F)CN1` (stereo in doubt) [Compound 177, 1-(4-(4-fluorobenzyl)-8,8-dimethyl-2-(trifluoromethyl)-7,8-dihydro-6H-imidazo[1,2-a]pyrrolo[2,3-e]pyridin-6-yl)-2-((2S,5R)-5-methyl-2-((2-(trifluoromethyl)-1H-imidazol-1-yl)methyl)piperazin-1-yl)ethan-1-one], the 50% inhibitory concentration (IC50) (Homo sapiens, MDA-MB-231, 72 h) worked out at 320 nM.

`C[C@@H]1CN(CC(=O)N2CC(C)(C)c3c2cc(Sc2ccc(F)cc2N)c2ncnn32)[C@@H](CN2CCOC[C@H]2C)CN1` [Compound 216, 1-(4-((2-amino-4-fluorophenyl)thio)-8,8-dimethyl-7,8-dihydro-6H-pyrrolo[2,3-e][1,2,4]triazolo[1,5-a]pyridin-6-yl)-2-((2R,5R)-5-methyl-2-(((R)-3-methylmorpholino)methyl)piperazin-1-yl)ethan-1-one]: the IC50 (Homo sapiens, MDA-MB-231, 72 h) was determined as 280 nM.

Consider `C[C@@H]1CN(CC(=O)N2CC(C)(C)c3c2cc(Cc2ccc(F)cc2)c2nnc(C(N)=O)n32)[C@@H](CN2CCOC[C@H]2C)CN1` [Compound 145, 4-(4-fluorobenzyl)-8,8-dimethyl-6-(2-((2R,5R)-5-methyl-2-(((R)-3-methylmorpholino)methyl)piperazin-1-yl)acetyl)-7,8-dihydro-6H-pyrrolo[2,3-e][1,2,4]triazolo[4,3-a]pyridine-1-carboxamide], for which the IC50 (Homo sapiens, MDA-MB-231, 72 h) came out at 450 nM.

As for `CC(C)c1nc2c(Cc3ccc(F)cc3)cc3c(n2n1)C(C)(C)CN3C(=O)CN1C[C@@H](C)NC[C@@H]1CN1CCOC[C@H]1C` [Compound 171, 1-(4-(4-fluorobenzyl)-2-isopropyl-8,8-dimethyl-7,8-dihydro-6H-pyrrolo[2,3-e][1,2,4]triazolo[1,5-a]pyridin-6-yl)-2-((2R,5R)-5-methyl-2-(((R)-3-methylmorpholino)methyl)piperazin-1-yl)ethan-1-one], the IC50 (Homo sapiens, MDA-MB-231, 72 h) was 95 nM.

On to `C[C@@H]1CN(CC(=O)N2CC(C)(C)c3c2cc(Cc2ccc(F)cc2)c2nn(CC(C)(C)O)c(=O)n32)[C@@H](CN2CC3CCC2CO3)CN1` (stereo partly drawn) [Compound 287, 6-(2-((2R,5R)-2-((2-oxa-5-azabicyclo[2.2.2]octan-5-yl)methyl)-5-methylpiperazin-1-yl)acetyl)-4-(4-fluorobenzyl)-2-(2-hydroxy-2-methylpropyl)-8,8-dimethyl-2,6,7,8-tetrahydro-1H-pyrrolo[2,3-e][1,2,4]triazolo[4,3-a]pyridin-1-one], for which the IC50 (Homo sapiens, MDA-MB-231, 72 h) came to 480 nM.

On to `C[C@@H]1CN(CC(=O)N2CC(C)(C)c3c2cc(S(=O)(=O)c2ccc(F)cc2)c2ncnn32)[C@@H](CN2CCOC[C@H]2C)CN1` [Compound 176, 1-(4-((4-fluorophenyl)sulfonyl)-8,8-dimethyl-7,8-dihydro-6H-pyrrolo[2,3-e][1,2,4]triazolo[1,5-a]pyridin-6-yl)-2-((2R,5R)-5-methyl-2-(((R)-3-methylmorpholino)methyl)piperazin-1-yl)ethan-1-one], for which the IC50 (Homo sapiens, MDA-MB-231, 72 h) was 190 nM.

On to `C[C@@H]1CN(CC(=O)N2CC(C)(C)c3c2cc(Cc2ccc(F)cc2)n2c(C(F)(F)F)nnc32)[C@@H](CN2CCOC[C@H]2C)CN1` [Example 22, 1-(5-(4-fluorobenzyl)-9,9-dimethyl-3-(trifluoromethyl)-8,9-dihydro-7H-pyrrolo[3,2-c][1,2,4]triazolo[4,3-a]pyridin-7-yl)-2-((2R,5R)-5-methyl-2-(((R)-3-methylmorpholino)methyl)piperazin-1-yl)ethan-1-one], for which, for the setting “Homo sapiens, MDA-MB-231, 72 h”, the IC50 was 3710 nM.

Regarding `C[C@@H]1CN(CC(=O)N2CC(C)(C)c3c2cc(Cc2ccc(F)cc2)c2ncnn32)[C@@H](CN2CCNC(=O)[C@H]2C)CN1` [Compound 191, (R)-4-(((2R,5R)-1-(2-(4-(4-fluorobenzyl)-8,8-dimethyl-7,8-dihydro-6H-pyrrolo[2,3-e][1,2,4]triazolo[1,5-a]pyridin-6-yl)-2-oxoethyl)-5-methylpiperazin-2-yl)methyl)-3-methylpiperazin-2-one], the IC50 (Homo sapiens, MDA-MB-231, 72 h) is 80 nM.

With `C[C@@H]1CN(CC(=O)N2CC(C)(C)c3c2cc(Cc2ccc(F)cc2)c2nc(C(F)(F)F)cn32)[C@@H](CN2CCN(CC#N)C[C@H]2C)CN1` [Compound 175, 2-((R)-4-(((2R,5R)-1-(2-(4-(4-fluorobenzyl)-8,8-dimethyl-2-(trifluoromethyl)-7,8-dihydro-6H-imidazo[1,2-a]pyrrolo[2,3-e]pyridin-6-yl)-2-oxoethyl)-5-methylpiperazin-2-yl)methyl)-3-methylpiperazin-1-yl)acetonitrile], the IC50 (Homo sapiens, MDA-MB-231, 72 h) turned out to be 120 nM.

As to `C[C@@H]1CN(CC(=O)N2CC(C)(C)c3c2cc(Cc2ccc(F)cc2)c2cnc(-c4ccc(F)cc4)n32)[C@@H](CN2CCOC[C@H]2C)CN1` [Example 8, 1-(4-(4-fluorobenzyl)-1-(4-fluorophenyl)-8,8-dimethyl-7,8-di hydro-6H-imidazo[1,5-a]pyrrolo[2,3-e]pyridin-6-yl)-2-((2R,5R)-5-methyl-2-(((R)-3-methylmorpholino)methyl)piperazin-1-yl)ethan-1-one], for the setting “Homo sapiens, MDA-MB-231, 72 h”, the IC50 was determined as 36 nM.

Regarding `C[C@@H]1CN(CC(=O)N2CC(C)(C)c3c2cc(Cc2ccc(F)cc2)c2nc(N4C[C@@H](O)[C@H](O)C4)nn32)[C@@H](CN2CCOC[C@H]2C)CN1` [Compound 188, 1-(2-((3R,4R)-3,4-dihydroxypyrrolidin-1-yl)-4-(4-fluorobenzyl)-8,8-dimethyl-7,8-dihydro-6H-pyrrolo[2,3-e][1,2,4]triazolo[1,5-a]pyridin-6-yl)-2-((2R,5R)-5-methyl-2-(((R)-3-methylmorpholino)methyl)piperazin-1-yl)ethan-1-one], the IC50 was found to be 80 nM.

Take `C[C@@H]1CN(CC(=O)N2CC(C)(C)c3c2cc(Cc2ccc(F)cc2)c2nc(C(=O)O)nn32)[C@@H](CN2CCOC[C@H]2C)CN1` [Compound 197, 4-(4-fluorobenzyl)-8,8-dimethyl-6-(2-((2R,5R)-5-methyl-2-(((R)-3-methylmorpholino)methyl)piperazin-1-yl)acetyl)-7,8-dihydro-6H-pyrrolo[2,3-e][1,2,4]triazolo[1,5-a]pyridine-2-carboxylic acid]: the half-inhibitory concentration (IC50) (Homo sapiens, MDA-MB-231, 72 h) was more than 10000 nM.
